The target of series [1] is T1, EGFR (Homo sapiens, UniProt P00533). The series is described as follows: cell-based.
Method: The inhibition of receptor autophosphorylation in viable cells was determined by anti-phosphotyrosine Western Blots. A431 cells were pre-incubated overnight for 24 h at 37° C. in a 6-well plate (1×10^6) with 0.1% serum, after which they were exposed to a range of doses for each drug for 2 h and subsequently treated with 50 ng/mL EGF for 30 min at 37° C. The cells were thereafter washed with PBS and re-suspended in cold lysis buffer [50 mM Tris-HCl pH 7.5; 150 mM NaCl; 1% NP40, 1 mM EDTA; 5 mM NaF; 1 mM Na3VO4; protease inhibitor tablet (Roche Biochemicals, Laval, Canada)]. The lysates were kept on ice for 30 min and collected by centrifugation at 10 000 rpm for 20 min at 4° C. The protein concentrations were determined against a standardized control using the Bio-Rad protein assay kit (Bio-Rad Laboratories, Hercules, Calif.). […] Non-specific binding on the PVDF membrane was minimized with a blocking buffer containing nonfat dry milk (3%) in PBS. The membrane was blotted with primary antibodies [either antiphosphotyrosine antibody (UBI, Lake Placid, N.Y.) for the detection of phosphotyrosine, or anti-EGFR (Neomarkers, Fremont, Calif.) for the determination of corresponding receptor levels], and anti-β-tubulin (Neomarkers, Fremont, Calif.) for the detection of equal loading. Thereafter, blots were incubated with HRP-goat anti-mouse antibody (1:200 dilution; Bio-Rad Laboratories, Hercules, Calif.) and the bands visualized with an enhanced chemiluminescence system (Amersham Pharmacia Biotech, Buckinghamshire, UK). Band intensities were measured using the SynGene GeneTools software package (Cambridge, UK).
The inhibition of receptor autophosphorylation in viable cells was determined by anti-phosphotyrosine Western Blots. […] Protein concentrations were determined against a standardized control using the Bio-Rad protein assay kit (Bio-Rad Laboratories, Hercules, Calif.). […] Band intensities were measured using the SynGene GeneTools software package (Cambridge, UK).
Series [2] has as its system NIH3T3 and NIH3T3HER14 cells. The series is described as follows: MTT cytotoxicity assay in NIH3T3 / NIH3T3HER14. The class given is cell-based, mouse. On the procedure:
The cytotoxic effects of our compounds were evaluated using the 3-(4,5-dimethylthiazo-2-yl)-2,5-diphenyltetrazolium bromide (MTT) assay (42) with minor modifications. Briefly, cells were grown in 24-well plates and then exposed to the compounds for 96 h. MTT (50μl) of (5 mg/ml in sterile PBS) was added to 500 μl of media and the plates were incubated for 2-3 h at 37° C. […] Each point represents the average of at least two independent experiments run in duplicate.

Series [3] has as its system A431 cells. The series is described as follows: SRB growth inhibition assay in A431 cells. It is filed as cell-based, human. On the procedure: All growth inhibitory activities were evaluated using the SRB assay (33). Briefly, following drug treatment, cells were fixed using 50 μL of cold trichloroacetic acid (50%) for 60 min at 4° C., washed five times with tap water, and stained for 30 min at room temperature with SRB (0.4%) dissolved in acetic acid (0.5%). The plates were rinsed five times with 1% acetic acid and allowed to air dry. The resulting colored residue was dissolved in 200 μL of Tris base (10 mM), and the optical density read for each well at 540 nm using a Bio-Rad microplate reader (model 2550). […]
Cell monolayers were continuously exposed to different concentrations of each drug for 72 h. Under short exposure, they were treated with each drug for 2 h and allowed to recover for 72 h in drug-free medium.
To study the reversibility of the antiproliferative effects of our compounds, cells were grown to 70% confluence in 96-well plates and subsequently washed twice with PBS, after which they were exposed to serum-free medium for 18 h. Under continuous exposure, the cells were exposed to different concentrations of each drug for 120 h. Under short exposure, they were exposed to each drug for 2 h, after which they were allowed to recover for 120 h in drug free medium. Growth inhibitory activities were evaluated using the SRB assay as described above.

Series [4] deals with T1, EGFR. The series is described as follows: EGFR TK ELISA with PGT substrate (competitive binding at the ATP site). Details: purchased BIOMOL (Plymouth Meeting); also a gift from Pfizer Inc. The class given is biochemical. The method, then: The ability of the combi-molecules to block EGFR TK activity was determined by an ELISA assay using poly(L-glutamic acid-L-tyrosine, 4:1) PGT as a substrate and commercially available EGFR.
Nunc MaxiSorp 96-well plates were incubated overnight at 37° C. with 100μL per well of 0.25 mg/mL PGT in PBS. Excess PGT was removed and the plates were washed 3 times with Tween 20 (0.1%) in PBS. […] The compound was added and phosphorylation initiated by the addition of ATP (20 μM). After 8 min at room temperature with constant shaking, the reaction was terminated by the aspiration of the reaction mixture and by rinsing the plate 4 times with wash buffer (Tween 20 (0.1%) in PBS). […] Antibody was removed by aspiration, and the plates washed 4 times with wash buffer. The signals were developed by the addition of 50 μL per well of TMB peroxidase substrate (Kierkegaard and Perry Laboratories, Gaithersberg, Md.).
This assay is similar to the one previously described. Nunc MaxiSorp 96-well plates were incubated overnight at 37° C. with 100 μl/well of 25 ng/ml PGT in PBS. Excess PGT was removed and the plates were washed three times with wash buffer (Tween 20 (0.1%) in PBS). […] The compound was added and phosphorylation initiated by the addition of ATP (20 μM). After 8 min at room temperature with constant shaking, the reaction was terminated by aspirating the mixture and by rinsing the plates four times with wash buffer Tween 20 (0.1%) in PBS. […] Antibody was removed by aspiration, and the plate washed four times with wash buffer. The signals were developed by the addition of 50 μl/well of 3,3′,5,5′-tetramethylbenzidine (TMB) peroxidase substrate (Kierkegaard and Perry Laboratories, Gaithersberg, Md., USA).

Series [5] has as its target T2, cytoplasmic domain of the insulin receptor β subunit (Homo sapiens, UniProt P06213).
T2 construct: Baculovirus-expressed cytoplasmic domain of the insulin receptor β subunit; purchased Biomol Research laboratories Inc., USA; host or cells: Baculovirus expression
The settings on record: read-out: IC50 insulin receptor (positive control); cited from earlier work.

The test system of series [6] is A431 cells. Nature of the series: Colony forming (clonogenic) assay in A431 cells. To be noted: Homo sapiens, A-431, 144 h, read-out: IC50 colony formation.
The test system of series [7] is A431 cells. The series is described as follows: Alkaline comet assay for DNA damage in A431 cells. The settings on record: for DNA damage (comet tail moment): A431, 30 min or 2 h exposure.
Method: A431 cells were exposed to drugs for 30 min or 2 h, and harvested with trypsin-EDTA. The cells were subsequently collected by centrifugation and re-suspended in PBS. The resulting cell suspension was diluted to approximately 10^6 cells, and mixed with agarose (1%) in PBS at 37° C. in a 1:10 dilution. The gels were cast on Gelbond strips (Mandel Scientific, Guelph, Canada) using gel casting chambers, as previously described (32), then immediately placed into a lysis buffer [2.5 M NaCl, 0.1 M tetra-sodium EDTA, 10 mM tris-base, 1% (w/v) N-lauryl sarcosine, 10% (v/v) DMSO and 1% (v/v) Triton X-100]. After being kept on ice for 30 min, the gels were gently rinsed with distilled water and then immersed in a second lysis buffer [2.5 M NaCl, 0.1 M tetra-sodium EDTA, 10 mM tris-base], containing 1 mg/ml proteinase K for 60 min at 37° C. Thereafter, the gels were rinsed with distilled water, incubated in alkaline electrophoresis buffer for 30 min at 37° C., and electrophoresed at 300 mA for 60 min. The gels were subsequently rinsed with distilled water and placed into 1 M ammonium acetate for 30 min. They were further soaked in 100% ethanol for 2 h, dried overnight and subsequently stained with SYBR Gold ( 1/10000 dilution of stock supplied from Molecular Probes, OR) for 20 min. For evaluation of comets, DNA damage was assessed using the Tail Moment parameter (i.e. the product of the distance between the barycentres of the head and the tail of the comet. A minimum of 50 cell comets were analyzed for each sample using ALKOMET v3.1 software, and values are an average of tail moments for the entire cell population.
Cell suspensions were diluted to approximately 10^6 cells, and mixed with agarose (1%) in PBS at 37° C. in a 1:10 dilution. The gels were cast on Gelbond strips (Mandel Scientific, Guelph, Canada) using gel casting chambers, as previously described (31), and then immediately placed in a lysis buffer [2.5 M NaCl, 0.1 M tetra-sodium EDTA, 10 mM Tris-base, 1% (w/v) N-lauryl sarcosine, 10% (v/v) DMSO, and 1% (v/v) Triton X-100, pH 10.0]. After being kept on ice for 30 min, the gels were gently rinsed with distilled water and immersed in a second lysis buffer (2.5 M NaCl, 0.1 M tetrasodium EDTA, 10 mM Tris-base) containing 1 mg/ml proteinase K for 60 min at 37° C. Thereafter, the gels were rinsed with distilled water, incubated in alkaline electrophoresis buffer for 30 min at 37° C., and electrophoresed at 300 mA for 60 min. The gels were subsequently rinsed with distilled water and placed in 1 M ammonium acetate for 30 min. They were soaked in 100% ethanol for 2 h, dried overnight, and subsequently stained with SYBR Gold ( 1/10000 dilution of stock supplied from Molecular Probes, Eugene, Oreg.) for 20 min. Comets were visualized at 330× magnification and DNA damage was quantitated using the Tail Moment parameter (i.e., the distance between the barycenter of the head and the tail of the comet multiplied by the percentage of DNA within the tail of the comet). A minimum of 50 cell comets were analyzed for each sample, using ALKOMET version 3.1 image analysis software, and values are averages of tail moments for the entire cell population per sample.
Series [8] is described as follows: Degradation in serum-containing cell culture medium (UV, HPLC). It is filed as in vitro ADME. The settings on record: bovine, serum-containing cell culture medium (RPMI with 10% serum); RPMI with 10% serum, 37° C.; read-out: half-life (t1/2) by UV spectrophotometry at 340 nm. The method, then: Thereafter, proteins were precipitated by the addition of acetonitrile (3.5 ml) and the supernatant collected by centrifugation. […] The operating mode was isocratic and two solutions, “A” (50% acetonitrile) and “B” (50% water), were used with a 0.5 ml/min flow rate and a 5 μL injection volume. […] For the rapid quantitation of metabolite, a less polar acetonitrile-water (70:30) eluent was used.
The half-life was estimated by a one-phase exponential decay curve-fit method using the GraphPad software package (GraphPad Software, Inc., San Diego, Calif.).
The half-life of BJ2000 under physiological conditions was studied by UV-spectrophotometry. BJ2000 was dissolved in a minimum volume of DMSO, diluted with RPMI-1640 supplemented with 10% FBS, and absorbencies read at 340 nm in a UV cell maintained at 37° C. with a circulating water bath. The half-life was estimated by a one-phase exponential decay curve-fit method, using the GraphPad software package (GraphPad software, Inc., San Diego, Calif., USA).
Proteins were thereafter precipitated by the addition of acetonitrile (3.5 ml), and the supernatant collected by centrifugation. […] HPLC analyses were performed on a Hewlett Packard 1090 liquid chromatograph, using a Waters C4 15-μm 300×3.9-mm reverse phase column to characterize and quantitate the products resulting from the degradation of BJ2000. […] The peaks were detected at 250 nm.

Series [9] deals with A431 cells. The series is described as follows: SRB growth inhibition assay in A431 cells. The class given is cell-based. To be noted: Homo sapiens, A-431, 96 h, read-out: IC50 growth inhibition.
Series [10] deals with T2, cytoplasmic domain of the insulin receptor β subunit. The series is described as follows: insulin receptor kinase ELISA. The class given is biochemical. The settings on record: 1-100 μM range. On the procedure:
(§1) Conditions for the c-src and insulin kinase assays were similar to those of the EGFR kinase assay, with the exception of the addition of 1 mM manganese chloride to the assay buffer, and a final ATP concentration of 100 μM. The reaction was terminated by the addition of 50 μl of a 250 mM solution of EDTA prior to aspiration.

For series [11], the system named is NIH3T3HER14 cells. Nature of the series: Growth factor-stimulated proliferation in NIH3T3HER14 cells (SRB). The class given is cell-based, mouse. The settings on record: NIH3T3HER14, 72 h. On the procedure: To study the effect of our compounds on growth factors stimulated proliferation, cells were grown to 70% confluence in 48-well plates and washed twice with PBS, after which they were exposed to serum-free medium for 18 h. The cells were then exposed to each drug and growth factors (EGF, TGFα, PDGF or serum) for 72 h and cell growth measured using the sulforhodamine B (SRB) assay (33). Briefly, following drug treatment, cells were fixed using 50 μl of cold trichloroacetic acid (50%) for 60 min at 4° C., washed five times with tap water, and stained for 30 min at room temperature with SRB (0.4%) dissolved in acetic acid (0.5%). The plates were rinsed five times with 1% acetic acid and allowed to air dry. […] Each point represents the average of at least two independent experiments run in triplicate.

Series [12] concerns the target T1, EGFR. Nature of the series: Reverse EGFR autophosphorylation (reversibility) assay in A431 cells. It is filed as cell-based. To be noted: A431, 30 μM, 90 min. On the procedure: To test this hypothesis, the reversibility assay (40, 41) was used, according to which the cells are treated with the drug for 90 min after which the culture medium is repeatedly removed and replaced 3 times, followed by the measurement of EGFR autophosphorylation.
A431 cells were grown to confluence in 6-well plates and then incubated in serum-free medium for 18 h (41). Duplicate sets of cells were then treated with 30 μM of each compound for 90 min. One set of cells was then stimulated with EGF (100 ng/ml) for 10 min and extracts were made as described under the Western blotting procedure above. The other set of cells was washed free of each compound with warmed serum-free media and incubated for 2 h. Thereafter, the cells were washed, incubated for another 2 h, washed again, and then incubated for a further 4 h. This set of cells was then stimulated with EGF and extracts were prepared as for the first set.

Series [13] has as its target T3, human c-src (Homo sapiens, UniProt P12931).
T3 construct: purchased Upstate NY; host or cells: Baculovirus expression
Nature of the series: c-src kinase ELISA. The class given is biochemical. The settings on record: 1-100 μM range. The method, then: as §1

[14] abbreviates: Homo sapiens, A-431, 72 h, 72 h continuous exposure, SRB, A431, read-out: IC50 growth inhibition.
[15] abbreviates: ELISA, PGT substrate, purified EGFR, ATP 20 μM, 8 min, read-out: IC50, inhibition of EGFR TK (competitive binding at ATP site).
Setting [16] is: Homo sapiens, A-431, read-out: IC50 growth inhibition.

The structures appear in SMILES notation. Several values for one entry are separate records, joined by “and”; a condition that tells them apart may be missing. Equal values may be shown once.

T1 sequence (P00533 25-1210): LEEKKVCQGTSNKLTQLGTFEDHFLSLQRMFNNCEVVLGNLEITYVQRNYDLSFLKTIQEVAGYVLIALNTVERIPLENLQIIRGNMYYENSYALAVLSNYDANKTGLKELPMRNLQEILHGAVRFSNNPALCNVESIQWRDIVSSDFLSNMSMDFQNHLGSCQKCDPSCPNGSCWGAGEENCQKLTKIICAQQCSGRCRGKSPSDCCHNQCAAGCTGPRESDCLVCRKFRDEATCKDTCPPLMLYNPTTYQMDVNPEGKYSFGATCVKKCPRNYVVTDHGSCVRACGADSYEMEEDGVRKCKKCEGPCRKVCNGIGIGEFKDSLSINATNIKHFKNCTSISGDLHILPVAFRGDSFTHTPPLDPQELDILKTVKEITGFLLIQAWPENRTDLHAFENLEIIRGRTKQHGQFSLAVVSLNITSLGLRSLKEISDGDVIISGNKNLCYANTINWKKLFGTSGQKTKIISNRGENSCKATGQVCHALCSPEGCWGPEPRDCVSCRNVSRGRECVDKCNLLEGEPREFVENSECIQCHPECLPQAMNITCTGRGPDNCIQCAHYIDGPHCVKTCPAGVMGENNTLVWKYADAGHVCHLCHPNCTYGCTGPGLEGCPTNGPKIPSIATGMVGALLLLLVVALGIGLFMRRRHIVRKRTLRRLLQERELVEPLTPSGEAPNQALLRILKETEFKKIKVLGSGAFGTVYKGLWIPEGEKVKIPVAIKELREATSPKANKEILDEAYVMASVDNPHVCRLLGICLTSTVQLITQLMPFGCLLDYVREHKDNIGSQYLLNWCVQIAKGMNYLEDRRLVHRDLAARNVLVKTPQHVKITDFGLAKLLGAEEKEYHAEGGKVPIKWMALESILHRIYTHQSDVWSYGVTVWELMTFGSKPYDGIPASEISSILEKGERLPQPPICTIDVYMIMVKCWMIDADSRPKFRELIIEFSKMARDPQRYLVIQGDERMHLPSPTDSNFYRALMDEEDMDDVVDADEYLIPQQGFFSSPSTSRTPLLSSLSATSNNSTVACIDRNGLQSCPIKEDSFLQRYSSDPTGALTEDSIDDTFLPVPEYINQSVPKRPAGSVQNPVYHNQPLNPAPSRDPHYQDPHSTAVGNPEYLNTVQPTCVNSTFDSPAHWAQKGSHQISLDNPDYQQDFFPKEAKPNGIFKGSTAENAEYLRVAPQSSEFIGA
T2 sequence (P06213 980-1382 limits assumed): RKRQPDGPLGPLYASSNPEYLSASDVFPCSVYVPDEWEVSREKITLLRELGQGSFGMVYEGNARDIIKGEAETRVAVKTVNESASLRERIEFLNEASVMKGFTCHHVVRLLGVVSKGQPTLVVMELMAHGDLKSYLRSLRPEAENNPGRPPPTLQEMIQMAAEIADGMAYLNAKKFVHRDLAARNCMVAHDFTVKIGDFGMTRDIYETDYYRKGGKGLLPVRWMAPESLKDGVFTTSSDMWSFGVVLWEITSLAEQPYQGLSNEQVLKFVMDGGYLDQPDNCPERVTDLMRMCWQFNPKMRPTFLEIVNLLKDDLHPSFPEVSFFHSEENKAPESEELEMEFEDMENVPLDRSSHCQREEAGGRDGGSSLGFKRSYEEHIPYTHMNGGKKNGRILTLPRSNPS
T3 sequence (P12931 whole entry): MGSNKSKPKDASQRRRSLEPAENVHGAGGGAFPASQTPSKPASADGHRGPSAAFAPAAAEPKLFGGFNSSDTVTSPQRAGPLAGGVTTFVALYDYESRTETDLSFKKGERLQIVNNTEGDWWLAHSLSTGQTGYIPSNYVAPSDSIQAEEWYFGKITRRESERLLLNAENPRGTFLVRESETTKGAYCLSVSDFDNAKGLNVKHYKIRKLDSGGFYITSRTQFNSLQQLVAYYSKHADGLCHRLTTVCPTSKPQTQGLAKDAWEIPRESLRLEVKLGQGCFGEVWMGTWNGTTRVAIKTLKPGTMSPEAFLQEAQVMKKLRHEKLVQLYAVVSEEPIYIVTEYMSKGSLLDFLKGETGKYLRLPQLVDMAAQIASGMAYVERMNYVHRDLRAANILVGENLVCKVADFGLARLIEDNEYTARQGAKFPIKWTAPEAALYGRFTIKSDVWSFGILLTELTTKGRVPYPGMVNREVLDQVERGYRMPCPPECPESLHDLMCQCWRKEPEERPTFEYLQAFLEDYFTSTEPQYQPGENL

Regarding `Cn1nnc2c(C(N)=O)ncn2c1=O` [TEM, temozolomide, reference compound], the IC50 is above 100 µM in series [1], 366 µM in series [3] (setting [14]) and above 100 µM in series [4] (setting [15]). In series [2], the “fold greater cytotoxic activity in EGFR transfectant NIH3T3HER14 than in parental NIH3T3” value is on record as “no differential cytotoxicity”. Besides, in [3] (2 h + 72 h recovery and 72 h continuous, A431), the “antiproliferative activity under short and continuous exposure” value was “inactive”.
With `COCCNN=Nc1ccc2ncnc(Nc3cccc(Br)c3)c2c1` [D R1=MeOCH2CH2—], the IC50 in [4] (Table 1, means and SE's of two separate experiments, read-out: IC50 (μM), inhibition of EGFR tyrosine kinase activity) turned out to be 0.071 ± 0.029 µM.
`CC(=O)OCOC(c1ccc2ccccc2c1)P(=O)(OCOC(C)=O)OCOC(C)=O` (centres unmarked) [HNPMA-(AM)3]: in series [5], the half-maximal inhibitory concentration (IC50) was 100 µM.
Take `CNN=Nc1ccc2ncnc(Nc3cccc(C)c3)c2c1` [SMA41]: the half-inhibitory concentration (IC50) in series [6] is 4 µM; in [3] (72 h continuous exposure, SRB, A431, read-out: IC50 growth inhibition) it was around 30 µM; in [3] (Homo sapiens, A-431, 2 h exposure then 72 h recovery in drug-free medium, SRB, A431, read-out: IC50 growth inhibition), 36 µM; in [3] (setting [14]), 36 µM. Also, in [7] (A431, 30 min and 2 h exposure), the “concentration range with significant comet tail moment / DNA damage” value is 6 to 25 µM and 6.25 to 25 µM. The “DNA damage (comet tail moment)” value in series [7] is reported as “capable of inducing DNA damage in a dose-dependent manner”. Further, the “concentration range with nuclear condensation” value in series [7] (A431, 2 h) was 25 to 100 µM. Further, in series [8], the half-life was around 30 min.
Compound `COCCNN=Nc1ccc2ncnc(Nc3cccc(C)c3)c2c1` [E R1=MeOCH2CH2—] yielded an IC50 in [4] of 0.196 ± 0.031 µM.
Regarding `Cc1cccc(Nc2ncnc3ccc(N(C)C(=O)N(CCCl)N=O)cc23)c1` [FD137, N-(2-Chloroethyl)-N′-methyl-N′-(4-m-tolylaminoquinazolin-6-yl)-N-nitrosourea], the melting point is 150 to 151 °C (dec.). The “fold more potent than BCNU” value in [3] worked out at 50 fold. Further, the “level of DNA lesions compared with BCNU” value in series [7] (A431) is given as “lower levels of DNA lesions than BCNU”. The “DNA damage (comet tail moment)” value in [7] is reported as “dose-dependent increase in DNA single strand breaks”. Further, the half-inhibitory concentration (IC50) in [9] was determined as 0.8 µM.
For the compound `Cc1cccc(Nc2ncnc3ccc(N(C)C(=O)NCCCl)cc23)c1`, the melting point was 150 to 151 °C (dec.).
As for `Nc1ccc2ncnc(Nc3cccc(Cl)c3)c2c1` [FD105], the “effect on insulin receptor TK” value in [10] is recorded as “nor did it exert any effect on insulin receptor TK”. The IC50 in [3] (setting [16]) was above 100 µM. For the same compound, the “concentration giving 100% growth inhibition” value in series [11] (EGF or TGFα-induced proliferation) stood at 1 µM. For the same compound, the “concentration giving 100% inhibition” value in series [11] (PDGF-stimulated growth) is on record as “approximately 30 μM”. Also, the “DNA damage (comet tail moment)” value in [7] was “non-DNA damaging agent”. Further, the “EGF-dependent EGFR autophosphorylation immediately after drug exposure” value in [12] is “completely suppressed”. Also, in [13], the “effect on c-src TK activity” value is “did not block c-src TK activity”.
Take `CNc1ccc2ncnc(Nc3cccc(C)c3)c2c1` [FD110]: the IC50 in series [4] was around 0.05 µM.
Take `Cc1cccc(Nc2ncnc3ccc(N)cc23)c1` [SMA52, 6-amino-4-[(m-tolyl)amino]quinazoline]: the IC50 was 3.7 µM in series [6]; 8.44 µM in [1]; 59 µM in series [3] (Homo sapiens, A-431, 72 h, read-out: IC50 growth inhibition); above 100 µM in series [3] (setting [16]); 1.02 µM in series [4]; 1 µM in series [4] (setting [15]). In addition, the “DNA damage (comet tail moment)” value in [7] is “does not possess DNA damaging properties”.
Regarding `O=NN(CCCl)C(=O)NCCCl` [BCNU, bis-chloroethyl-N-nitrosourea, reference compound], the concentration for half-maximal inhibition (IC50) in series [9] was 40 µM.
